Measurements reported in patent US20230285568A1, “ENGINEERING DIVERSE ANTIGEN-PRESENTING CELLS TO CONTROL ANTIGEN-SPECIFIC RESPONSES” (University of Maryland, Baltimore, priority 2020, published 2023).

System: OVA-specific CD4+ T (OT-II) cells
Assay: BMDC/B cell co-culture with OT-II cells, CFSE dilution and CD25 expression
Assay type: cell-based, mouse
Settings: BMDCs and B cells, 3-day co-culture
Procedure: T cell proliferation studies assays were carried out as described. The assay was carried out in T cell media. BMDCs (2×10^4/well) or B cells (2×10^4/well) were seeded into 96-well round-bottom cell culture plates and incubated with LAg-nano or PAg-nano at various particle concentrations and Ag loadings for 3 hours. Following incubation, all wells were washed to remove excess particles that had not been internalized by cells. Cells were co-cultured with 2×10^4/well of each OTI (CD8) and OTII (CD4) T cells). Groups receiving antigen in lieu of LAg-nano or PAg-nano received soluble OVA323-339 or SIINFEKL (SEQ ID NO:1; 100 ng/mL) at this time. After 3 days of co-culture, the T cells were collected, stained for viability, CD4, and CD8 and analyzed using flow cytometry. The extent of T cell proliferation was analyzed by CFSE dilution using flow cytometry. Ag processing kinetics in B cells was determined by loading with long GP100, KVPRNQDWL (SEQ ID NO:4; short GP100), or lipid-long GP100, […] (lipid-GP100; SEQ ID NO:3). […]
BMDCs and B cells loaded with unmodified ovalbumin (OVA) MHC II-restricted antigen (OVA323-339) or lipo-OVA323-339 were co-cultured with OVA-specific CD4^+ T (OT-II) cells for 3 days. CD25+ expression was detected and the proliferation and division indices were calculated. […] FIGS. 11E through 11H show quantitation of the proliferation and division indices of OT-II T cells. […]

## Lipo-OVA323-339: DSPE-PEG2000 lipid conjugated to OVA323-339 (ISQAVHAAHAEINEAGR; SEQ ID NO:2)
  APC internalization and MHC II-restricted presentation to OTII CD4+ T cells: enables APC internalization and promotes MHC II-restricted presentation
